Here are results for 24 compounds from patent US20100137275A1 (IPSEN PHARMA S.A.S., priority 2007, published 2010).

For series [1], the target named is T1, purified recombinant Cdc25-C enzyme (MBP-Cdc25C protein) (Homo sapiens, UniProt P30307).
T1 construct: made in house
T1 sequence (P30307 1-473): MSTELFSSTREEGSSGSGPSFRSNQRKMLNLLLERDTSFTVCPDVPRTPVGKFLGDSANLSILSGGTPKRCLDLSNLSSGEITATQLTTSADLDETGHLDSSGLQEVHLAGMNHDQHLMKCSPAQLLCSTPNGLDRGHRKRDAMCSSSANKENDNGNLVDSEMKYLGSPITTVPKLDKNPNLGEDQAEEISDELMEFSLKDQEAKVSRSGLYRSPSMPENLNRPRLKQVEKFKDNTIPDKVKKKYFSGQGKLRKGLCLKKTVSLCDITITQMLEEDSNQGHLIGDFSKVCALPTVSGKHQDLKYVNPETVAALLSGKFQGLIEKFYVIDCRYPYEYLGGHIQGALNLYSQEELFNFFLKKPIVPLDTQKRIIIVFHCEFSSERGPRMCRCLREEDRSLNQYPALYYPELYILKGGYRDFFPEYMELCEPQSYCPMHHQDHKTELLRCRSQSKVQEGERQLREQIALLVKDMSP
Briefly: Phosphatase activity of the purified recombinant Cdc25C enzyme (OMFP dephosphorylation, fluorescence). Conditions: OMFP 500 μM, 4 hours at 30° C. The series is classed as biochemical. The protocol: The phosphatase activity of the MBP-Cdc25C protein is evaluated through its dephosphorylation of 3-O-methylfluorescein-phosphate (OMFP) to form 3-O-methylfluorescein (OMF), determining the fluorescence of the reaction product at 475 nm. This assay can be used to identify inhibitors of the recombinant Cdc25 enzyme. The preparation of the MBP-Cdc25C fusion protein is described in patent application PCT WO 01/44467.
The reaction is performed in 384-well plates in a final volume of 50 μl. The MBP-Cdc25C protein (prepared as described hereinabove) is stored in the following elution buffer: 20 mM Tris-HCl pH 7.4; 250 mM NaCl; 1 mM EDTA; 1 mM dithiothreitol (DTT); 10 mM maltose. It is diluted to a concentration of 60 μM in the following reaction buffer: 50 mM Tris-HCl pH 8.2; 50 mM NaCl; 1 mM DTT; 20% glycerol. The background noise is determined using with the buffer without addition of the enzyme. The products are tested at decreasing concentrations from 40 μM. The reaction is initiated by the addition of a solution OMFP to a final concentration of 500 μM (prepared immediately before use from a 12.5 mM stock solution in 100% DMSO (Sigma #M2629)). After 4 hours at 30° C. in a disposable 384-well plate, the fluorescence measured at OD 475 nm is read on a Victor^2 plate reader (EGG-Wallac). The concentration that produces 50% inhibition of the enzyme reaction is calculated from three independent experiments. Only the values that fall within the linear part of the sigmoid curve are used for the linear regression analysis.

What is called IC50 is the concentration that gives 50% inhibition. As usually defined, the melting point is the temperature of the solid-liquid transition. `CN(CCNC(=S)Nc1ccc(F)cc1F)CCNc1cc(N2CCCC2)nc(N2CCCC2)n1` [Example 40, N-(2,4-difluorophenyl)-N′-{2-[{2-[(2,6-dipyrrolidin-1-ylpyrimidin-4-yl)amino]ethyl}(methyl)amino]ethyl}thiourea] displayed a melting point of 124 to 126 °C. Also, in series [1], the IC50 is at most 1 µM. The compound `CCN(CCN(C)CCNc1cc(N2CCCC2)nc(N2CCCC2)n1)C(N)=O` [Example 18, N-{2-[{2-[(2,6-dipyrrolidin-1-ylpyrimidin-4-yl)amino]ethyl}(methyl)amino]ethyl}-N-ethylurea] displayed a melting point of 127 to 129 °C.

`CN(CCCNC(=O)Nc1ccc(Cl)c(C(F)(F)F)c1)CCCNc1cc(N2CCCC2)nc(N2CCCC2)n1.Cl` came in with a melting point of 115 to 117 °C. `CN(CCNC(=S)Nc1ccc(Cl)cc1)CCNc1cc(N2CCCC2)nc(N2CCCC2)n1.Cl` yielded a melting point of 211 to 213 °C. `S=C(NCCCCCNc1cc(N2CCCC2)nc(N2CCCC2)n1)Nc1ccc(Cl)cc1` [Example 58, N-(4-chlorophenyl)-N′-{5-[(2,6-dipyrrolidin-1-ylpyrimidin-4-yl)amino]pentyl}thiourea] had a melting point of 80 to 82 °C. In addition, the IC50 in series [1] is at most 5 µM.

For `CN(C)CCCCCNc1cc(N2CCCC2)nc(N2CCCC2)n1` [Example 5, N′-(2,6-dipyrrolidin-1-ylpyrimidin-4-yl)-N,N-dimethylpentane-1,5-diamine], the IC50 in series [1] was at most 5 µM. In the case of `CN(CCNC(=S)Nc1ccc(F)c(F)c1)CCNc1cc(N2CCCC2)nc(N2CCCC2)n1` [Example 67, N-(3,4-difluorophenyl)-N′-{2-[{2-[(2,6-dipyrrolidin-1-ylpyrimidin-4-yl)amino]ethyl}(methyl)amino]ethyl}thiourea], the melting point is 133 to 135 °C. The IC50 in series [1] is at most 1 µM. Consider `COc1ccc(C(=O)NC(=S)NCCN(C)CCNc2cc(N3CCCC3)nc(N3CCCC3)n2)cc1` [Example 80, N-[({2-[{2-[(2,6-dipyrrolidin-1-ylpyrimidin-4-yl)amino]ethyl}(methyl)amino]ethyl}amino)carbonothioyl]-4-methoxybenzamide], for which the melting point lay in the range of 171 to 173 °C. In addition, the IC50 in series [1] was at most 5 µM. For the compound `CN(CCNC(=NC#N)Nc1ccc(Cl)cc1)CCNc1cc(N2CCCC2)nc(N2CCCC2)n1` [Example 81, N-(4-chlorophenyl)-N″-cyano-N′-{2-[{2-[(2,6-dipyrrolidin-1-ylpyrimidin-4-yl)amino]ethyl}(methyl)amino]ethyl}guanidine], the melting point was 120 to 122 °C. Also, in series [1], the IC50 was at most 1 µM. Compound `Cc1cc(C)nc(NS(=O)(=O)c2ccc(NC(=S)NCCN(C)CCNc3cc(N4CCCC4)nc(N4CCCC4)n3)cc2)n1` [Example 50, N-(4,6-dimethylpyrimidin-2-yl)-4-{[({2-[{2-[(2,6-dipyrrolidin-1-ylpyrimidin-4-yl)amino]ethyl}(methyl)amino]ethyl}amino)carbonothioyl]amino}benzenesulfonamide] came in with a melting point of 129 °C. Besides, the IC50 in series [1] is at most 1 µM. In turn, `CN(CCNC(=S)Nc1ccc(Cl)c(F)c1)CCNc1cc(N2CCCC2)nc(N2CCCC2)n1` [Example 56, N-(4-chloro-3-fluorophenyl)-N′-{2-[{2-[(2,6-dipyrrolidin-1-ylpyrimidin-4-yl)amino]ethyl}(methyl)amino]ethyl}thiourea] gave a melting point of 146 to 148 °C. Moreover, the IC50 in series [1] was at most 5 µM. For `NCCCCCNc1cc(N2CCCC2)nc(N2CCCC2)n1` [Example 4, N-(2,6-dipyrrolidin-1-ylpyrimidin-4-yl)pentane-1,5-diamine], in series [1], the IC50 was at most 5 µM. As for `CNS(=O)(=O)c1ccc(NC(=S)NCCN(C)CCNc2cc(N3CCCC3)nc(N3CCCC3)n2)cc1` [Example 59, 4-{[({2-[{2-[(2,6-dipyrrolidin-1-ylpyrimidin-4-yl)amino]ethyl}(methyl)amino]ethyl}amino)carbonothioyl]amino}-N-methylbenzenesulfonamide], the melting point lay within 102 to 104 °C. In addition, the IC50 in series [1] is at most 1 µM.

Consider `CN(CCCN)CCCNc1cc(N2CCCC2)nc(N2CCCC2)n1` [Example 2, N-(3-aminopropyl)-N′-(2,6-dipyrrolidin-1-ylpyrimidin-4-yl)-N-methylpropane-1,3-diamine], for which the IC50 in series [1] is at most 5 µM. For `CCNC(=S)NCCN(C)CCNc1cc(N2CCCC2)nc(N2CCCC2)n1` [Example 28, N-{2-[{2-[(2,6-dipyrrolidin-1-ylpyrimidin-4-yl)amino]ethyl}(methyl)amino]ethyl}-N′-ethylthiourea], the melting point fell in the range of 82 to 84 °C. In series [1], the IC50 is at most 1 µM. `CN(CCNC(=O)c1cnc2ccccc2n1)CCNc1cc(N2CCCC2)nc(N2CCCC2)n1` [Example 82, N-{2-[{2-[(2,6-dipyrrolidin-1-ylpyrimidin-4-yl)amino]ethyl}(methyl)amino]ethyl}quinoxaline-2-carboxamide] returned a melting point of 146 to 148 °C. As for `CCN(CC)c1cc(NCCN(C)CCNC(=S)Nc2ccc(Cl)cc2)nc(N(CC)CC)n1` [Example 71, N-{2-[(2-{[2,6-bis(diethylamino)pyrimidin-4-yl]amino}ethyl)(methyl)amino]ethyl}-N′-(4-chlorophenyl)thiourea], in series [1], the 50% inhibitory concentration (IC50) was at most 1 µM. For `CCNC(=O)NCCN(C)CCNc1cc(N2CCCC2)nc(N2CCCC2)n1` [Example 18], the IC50 in series [1] was at most 5 µM. Regarding `CCN(CC)CCCCCNc1cc(N2CCCC2)nc(N2CCCC2)n1` [Example 6, N′-(2,6-dipyrrolidin-1-ylpyrimidin-4-yl)-N,N-diethylpentane-1,5-diamine], the 50% inhibitory concentration (IC50) in series [1] was at most 5 µM. Compound `CN(CCNC(=S)Nc1ccc(Cl)cc1)CCNc1cc(N2CCOCC2)nc(N2CCOCC2)n1` [Example 66, N-(4-chlorophenyl)-N′-{2-[{2-[(2,6-dimorpholin-4-ylpyrimidin-4-yl)amino]ethyl}(methyl)amino]ethyl}thiourea] had a melting point of 81 to 83 °C. On to `CNCCCN(C)CCCN(C)c1cc(N2CCCC2)nc(N2CCCC2)n1` [Example 3, N-(2,6-dipyrrolidin-1-ylpyrimidin-4-yl)-N,N′-dimethyl-N′-[3-(methylamino)propyl]propane-1,3-diamine], for which the IC50 in series [1] is at most 5 µM. Regarding `CN(CCNc1cc(N2CCCC2)nc(N2CCCC2)n1)CCN(C(N)=O)[C@@H]1CCc2ccccc2C1` [Example 11, N-{2-[{2-[(2,6-dipyrrolidin-1-ylpyrimidin-4-yl)amino]ethyl}(methyl)amino]ethyl}-N-[(2R)-1,2,3,4-tetrahydronaphthalen-2-yl]urea], the melting point lay within 93 to 95 °C. Turning to `CN(CCNC(=O)Nc1ccc(Cl)c(C(F)(F)F)c1)CCNc1cc(N2CCCC2)nc(N2CCCC2)n1` [Example 7, N-[4-chloro-3-(trifluoromethyl)phenyl]-N′-{2-[{2-[(2,6-dipyrrolidin-1-ylpyrimidin-4-yl)amino]ethyl}(methyl)amino]ethyl}urea], the IC50 in series [1] is at most 1 µM. Compound `FC(F)(F)c1cc(NC(=S)NCCCCCNc2cc(N3CCCC3)nc(N3CCCC3)n2)ccc1Cl` [Example 57, N-[4-chloro-3-(trifluoromethyl)phenyl]-N′-{5-[(2,6-dipyrrolidin-1-ylpyrimidin-4-yl)amino]pentyl}thiourea] yielded a melting point of 85 to 87 °C.
